These results are taken from patent publication US7223759B2, “Antibacterial 3,5-diaminopiperidine-substituted aromatic and heteroaromatic compounds” (Anadys Pharmaceuticals, Inc., priority 2003, dated 2007).

In general, MIC refers to the lowest concentration found to suppress growth.

The test system of the first experiment is Escherichia coli (ATCC25922) or Staphylococcus aureus (ATCC25923). As to the kind of experiment: Antibacterial MIC, microdilution method in Mueller-Hinton medium. As to conditions: Escherichia coli, 18 h, MIC in E. coli or S. aureus; two-fold serial dilutions 64 to 0.5 μg/ml in duplicate; 18 hours of incubation at 35° C.; read-out: Potency (MIC). Type of experiment: cell-based. An outline of the steps: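 Two-fold serial dilutions from 64 to 0.5 μg/ml, in duplicate, by broth microdilution in Mueller-Hinton medium (NCCLS M7-A5). MIC taken as the lowest concentration preventing visible growth after 18 h at 35° C.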
As for `N[C@@H]1C[C@H](N)CN(c2nc(Nc3ccc(C(=O)CC(=O)Nc4ccccc4Cl)cc3)nc(N3C[C@H](N)C[C@H](N)C3)n2)C1` [N-{4-[2-(2-chloro-phenylcarbamoyl)-acetyl]-phenyl}-4,6-Bis-((3R,5S)-3,5-diamino-piperidin-1-yl)-[1,3,5]triazine-2-amine], the MIC is below 16 µg/mL. Turning to `Cl.N[C@@H]1CC(c2nc(Nc3ccc(C(=O)CC(=O)Nc4ccccc4N4CCOCC4)cc3)nc(N3C[C@H](N)C[C@H](N)C3)n2)C[C@H](N)C1` (stereo partly drawn) [N-{4-[2-(2-morpholin-4-yl-phenylcarbamoyl)-acetyl]-phenytl}-4,6-Bis-((3R,5S)-3,5-diamino-piperidin-1-yl)-[1,3,5]triazine-2-ammine], the MIC is below 16 µg/mL. As to `COc1cc(NC(=O)CC(=O)c2ccc(Nc3nc(N4C[C@H](N)C[C@H](N)C4)nc(N4C[C@H](N)C[C@H](N)C4)n3)cc2)cc(OC)c1OC` [N-{4-[2-(3,4,5-trimethoxy-phenylcarbamoyl)-acetyl]-phenyl}-4,6-Bis-((3R,5S)-3,5-diamino-piperidin-1-yl)-[1,3,5]triazine-2-amine], the minimal inhibitory concentration (MIC) is above 64 µg/mL. With `Cl.O=C(CC(=O)c1ccc(Nc2nc(N3CCCCC3)nc(N3CCCCC3)n2)cc1)Nc1cccc(Br)c1` [N-{4-[2-(3-bromo-phenylcarbamoyl)-acetyl]-phenyl}-4,6-Biss-((3R,5S)-3,5-diamino-piperidin-1-yl)-[1,3,5]triazine-2-amine], the MIC was below 16 µg/mL. The same measure, in the same setting: to `COc1ccc(Nc2ccc(NC(=O)CC(=O)c3ccc(Nc4nc(N5CCCCC5)nc(N5CCCCC5)n4)cc3)cc2)cc1` [N-{4-[2-(4-methoxy-phenylcarbamoyl)-acetyl]-phenyl}-44,6-Bis-((3R,5S)-3,5-diamino-piperidin-1-yl)-[1,3,5]triazine-2-amine] belongs below 16 µg/mL; to `Cl.NS(=O)(=O)c1ccc(NC(=O)CC(=O)c2ccc(Nc3nc(N4CCCCC4)nc(N4CCCCC4)n3)cc2)cc1` [N-{4-[2-(4-sulfamoyl-phenylcarbamoyl)-acetyl]-phenyl}-44,6-Bis-((3R,5S)-3,5-diamino-piperidin-1-yl)-[1,3,5]triazine-2-amine], below 64 µg/mL; to `Cl.O=C(CC(=O)c1ccc(Nc2nc(N3CCCCC3)nc(N3CCCCC3)n2)cc1)Nc1ccc(-c2ccccc2)cc1` [N-{4-[2-(biphenyl-44-ylcarbamoyl)-acetyl]-phenyl}-44,6-Bis-((3R,5S)-3,5-diamino-piperidin-1-yl)-[1,3,5]triazine-2-amine], below 16 µg/mL. In the case of `COC(=O)CC(=O)Nc1ccc(Nc2nc(N3C[C@H](N)C[C@H](N)C3)nc(N3C[C@H](N)C[C@H](N)C3)n2)cc1O` [N-{4-[4,6-Bis-((3R,5S)-3,5-diamino-piperidin-1-yl)-[1,3,5]triazin-2-ylamino]-2-hydroxy-phenyl}-malonamic acid methylester], the MIC was above 64 µg/mL.

The experiment is the same for the next values; noted with them: Escherichia coli, 18 h, read-out: Potency (MIC).
As to `N[C@@H]1C[C@H](N)CN(c2nc(Nc3ccc(C(=O)CC(=O)Nc4cc(C(F)(F)F)ccc4Cl)cc3)nc(N3C[C@H](N)C[C@H](N)C3)n2)C1` [N-{4-[2-(2-chloro-5-trifluoromethyl-phenylcarbamoyl)-acetyl]-phenyl}-4,6-Bis-((3R,5S)-3,5-diamino-piperidin-1-yl)-[1,3,5]triazine-2-amine], the MIC was below 16 µg/mL.

Turning to `N[C@@H]1C[C@H](N)CN(c2nc(Nc3ccc(C(=O)CC(=O)Nc4ccccc4F)cc3)nc(N3C[C@H](N)C[C@H](N)C3)n2)C1` [N-{4-[2-(2-fluoro-phenylcarbamoyl)-acetyl]-phenyl}-4,6-Bis-((3R,5S)-3,5-diamino-piperidin-1-yl)-[1,3,5]triazine-2-amine], the MIC is below 64 µg/mL.

As for `N[C@@H]1C[C@H](N)CN(c2nc(Nc3ccc(C(=O)CC(=O)Nc4ccccc4C(F)(F)F)cc3)nc(N3C[C@H](N)C[C@H](N)C3)n2)C1` [N-{4-[2-(2-trifluoromethyl-phenylcarbamoyl)-acetyl]-phenyl}-4,6-Bis-((3R,5S)-3,5-diamino-piperidin-1-yl)-[1,3,5]triazine-2-amine], the MIC was below 64 µg/mL. Regarding `N[C@@H]1C[C@H](N)CN(c2nc(Nc3ccc(C(=O)CC(=O)Nc4ccc(F)c(F)c4)cc3)nc(N3C[C@H](N)C[C@H](N)C3)n2)C1` [N-{4-[2-(3,4-difluoro-phenylcarbamoyl)-acetyl]-phenyl}-4,6-Bis-((3R,5S)-3,5-diamino-piperidin-1-yl)-[1,3,5]triazine-2-amine], the MIC was below 16 µg/mL. In the case of `Nc1cccc(NC(=O)CC(=O)c2ccc(Nc3nc(N4C[C@H](N)C[C@H](N)C4)nc(N4C[C@H](N)C[C@H](N)C4)n3)cc2)c1` [N-{4-[2-(3-amino-phenylcarbamoyl)-acetyl]-phenyl}-4,6-Bis-((3R,5S)-3,5-diamino-piperidin-1-yl)-[1,3,5]triazine-2-amine], the minimum inhibitory concentration (MIC) is above 64 µg/mL. For the molecule `N[C@@H]1C[C@H](N)CN(c2nc(Nc3ccc(C(=O)CC(=O)Nc4ccc(F)c(Cl)c4)cc3)nc(N3C[C@H](N)C[C@H](N)C3)n2)C1` [N-{4-[2-(3-chloro-4-fluoro-phenylcarbamoyl)-acetyl]-phenyl}-4,6-Bis-((3R,5S)-3,5-diamino-piperidin-1-yl)-[1,3,5]triazine-2-amine], the MIC is below 16 µg/mL. On to `N[C@@H]1C[C@H](N)CN(c2nc(Nc3ccc(C(=O)CC(=O)Nc4cccc(Cl)c4)cc3)nc(N3C[C@H](N)C[C@H](N)C3)n2)C1` [N-{4-[2-(3-chloro-phenylcarbamoyl)-acetyl]-phenyl}-4,6-Bis-((3R,5S)-3,5-diamino-piperidin-1-yl)-[1,3,5]triazine-2-amine], for which the MIC is below 16 µg/mL. As to `N[C@@H]1C[C@H](N)CN(c2nc(Nc3ccc(C(=O)CC(=O)Nc4cccc(CO)c4)cc3)nc(N3C[C@H](N)C[C@H](N)C3)n2)C1` [N-{4-[2-(3-hydroxymethyl-phenylcarbamoyl)-acetyl]-phenyl}-4,6-Bis-((3R,5S)-3,5-diamino-piperidin-1-yl)-[1,3,5]triazine-2-amine], the minimum inhibitory concentration (MIC) was above 64 µg/mL. In the case of `N[C@@H]1C[C@H](N)CN(c2nc(Nc3ccc(C(=O)CC(=O)Nc4cccc(OC(F)(F)F)c4)cc3)nc(N3C[C@H](N)C[C@H](N)C3)n2)C1` [N-{4-[2-(3-trifluoromethoxy-phenylcarbamoyl)-acetyl]-phenyl}-4,6-Bis-((3R,5S)-3,5-diamino-piperidin-1-yl)-[1,3,5]triazine-2-amine], the MIC is below 16 µg/mL.

Regarding `N[C@@H]1C[C@H](N)CN(c2nc(Nc3ccc(C(=O)CC(=O)Nc4cccc(C(F)(F)F)c4)cc3)nc(N3C[C@H](N)C[C@H](N)C3)n2)C1` [N-{4-[2-(3-trifluoromethyl-phenylcarbamoyl)-acetyl]-phenyl}-4,6-Bis-((3R,5S)-3,5-diamino-piperidin-1-yl)-[1,3,5]triazine-2-amine], the MIC was below 16 µg/mL. For the molecule `N[C@@H]1C[C@H](N)CN(c2nc(Nc3ccc(C(=O)CC(=O)Nc4cccc(SC(F)(F)F)c4)cc3)nc(N3C[C@H](N)C[C@H](N)C3)n2)C1` [N-{4-[2-(3-trifluoromethylsulfanyl-phenylcarbamoyl)-acetyl]-phenyl}-4,6-Bis-((3R,5S)-3,5-diamino-piperidin-1-yl)-[1,3,5]triazine-2-amine], the minimum inhibitory concentration (MIC) was below 16 µg/mL. For the molecule `NCc1ccc(NC(=O)CC(=O)c2ccc(Nc3nc(N4C[C@H](N)C[C@H](N)C4)nc(N4C[C@H](N)C[C@H](N)C4)n3)cc2)cc1` [N-{4-[2-(4-aminomethyl-phenylcarbamoyl)-acetyl]-phenyl}-4,6-Bis-((3R,5S)-3,5-diamino-piperidin-1-yl)-[1,3,5]triazine-2-amine], the MIC was above 64 µg/mL. Regarding `COc1cc(NC(=O)CC(=O)c2ccc(Nc3nc(N4C[C@H](N)C[C@H](N)C4)nc(N4C[C@H](N)C[C@H](N)C4)n3)cc2)c(OC)cc1Cl` [N-{4-[2-(4-chloro-2,5-dimethoxy-phenylcarbamoyl)-acetyl]-phenyl}-4,6-Bis-((3R,5S)-3,5-diamino-piperidin-1-yl)-[1,3,5]triazine-2-amine], the MIC is below 16 µg/mL. Take `N[C@@H]1C[C@H](N)CN(c2nc(Nc3ccc(C(=O)CC(=O)Nc4ccc(Cl)cc4F)cc3)nc(N3C[C@H](N)C[C@H](N)C3)n2)C1` [N-{4-[2-(4-chloro-2-fluoro-phenylcarbamoyl)-acetyl]-phenyl}-4,6-Bis-((3R,5S)-3,5-diamino-piperidin-1-yl)-[1,3,5]triazine-2-amine]: the MIC is below 16 µg/mL. Turning to `N[C@@H]1C[C@H](N)CN(c2nc(Nc3ccc(C(=O)CC(=O)Nc4ccc(Cl)cc4)cc3)nc(N3C[C@H](N)C[C@H](N)C3)n2)C1` [N-{4-[2-(4-chloro-phenylcarbamoyl)-acetyl]-phenyl}-4,6-Bis-((3R,5S)-3,5-diamino-piperidin-1-yl)-[1,3,5]triazine-2-amine], the minimum inhibitory concentration (MIC) was below 16 µg/mL. On to `N[C@@H]1C[C@H](N)CN(c2nc(Nc3ccc(C(=O)CC(=O)Nc4ccc(F)cc4)cc3)nc(N3C[C@H](N)C[C@H](N)C3)n2)C1` [N-{4-[2-(4-fluoro-phenylcarbamoyl)-acetyl]-phenyl}-4,6-Bis-((3R,5S)-3,5-diamino-piperidin-1-yl)-[1,3,5]triazine-2-amine], for which the MIC is below 16 µg/mL. `N[C@@H]1C[C@H](N)CN(c2nc(Nc3ccc(C(=O)CC(=O)Nc4ccc(SC(F)(F)F)cc4)cc3)nc(N3C[C@H](N)C[C@H](N)C3)n2)C1` [N-{4-[2-(4-trifluoromethylsulfanyl-phenylcarbamoyl)-acetyl]-phenyl}-4,6-Bis-((3R,5S)-3,5-diamino-piperidin-1-yl)-[1,3,5]triazine-2-amine]: the minimum inhibitory concentration (MIC) is below 16 µg/mL. As for `N[C@@H]1C[C@H](N)CN(c2nc(Nc3ccc(NC(=O)c4ccc(N5Cc6ccccc6C5)cc4O)c(O)c3)nc(N3C[C@H](N)C[C@H](N)C3)n2)C1` [N-{4-[4-(1,3-dihydro-isoindol-2-yl)-2-hydroxy-benzoylamino]-3-hydroxy-phenyl}-4,6-Bis-((3R,5S)-3,5-diamino-piperidin-1-yl)-[1,3,5]triazine-2-amine], the MIC is below 64 µg/mL.
